In general, IC50 refers to the concentration that inhibits the measured activity by half.

The structures appear in SMILES notation. Where only a bound is given, the exact number is not on record here.

For one assay, the target named is MAGL (Homo sapiens (Human), UniProt Q99685). Kind of assay: In vitro competitive activity-based protein profiling (human prefrontal cortex membrane fractions, FP-Rh probe), MAGL band. As to conditions: for IC50: read-out: MAGL IC50 (μM) (human), human prefrontal cortex membrane fractions.
Chain of MAGL (Q99685 whole entry): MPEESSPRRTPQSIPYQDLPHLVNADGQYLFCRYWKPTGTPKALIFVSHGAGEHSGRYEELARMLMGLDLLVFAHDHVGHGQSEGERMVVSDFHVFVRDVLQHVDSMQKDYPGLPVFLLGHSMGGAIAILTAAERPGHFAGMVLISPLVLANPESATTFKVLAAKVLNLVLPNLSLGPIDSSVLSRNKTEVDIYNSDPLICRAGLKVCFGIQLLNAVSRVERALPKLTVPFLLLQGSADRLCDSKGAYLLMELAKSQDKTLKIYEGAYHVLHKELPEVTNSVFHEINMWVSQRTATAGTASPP
A further assay concerns the target FAAH (Homo sapiens (Human), UniProt O00519). As to the kind of experiment: In vitro competitive activity-based protein profiling (human prefrontal cortex membrane fractions, FP-Rh probe), FAAH band. The conditions noted are these: for IC50: read-out: FAAH IC50 (μM) (human), human prefrontal cortex membrane fractions.

Chain of FAAH (O00519 whole entry): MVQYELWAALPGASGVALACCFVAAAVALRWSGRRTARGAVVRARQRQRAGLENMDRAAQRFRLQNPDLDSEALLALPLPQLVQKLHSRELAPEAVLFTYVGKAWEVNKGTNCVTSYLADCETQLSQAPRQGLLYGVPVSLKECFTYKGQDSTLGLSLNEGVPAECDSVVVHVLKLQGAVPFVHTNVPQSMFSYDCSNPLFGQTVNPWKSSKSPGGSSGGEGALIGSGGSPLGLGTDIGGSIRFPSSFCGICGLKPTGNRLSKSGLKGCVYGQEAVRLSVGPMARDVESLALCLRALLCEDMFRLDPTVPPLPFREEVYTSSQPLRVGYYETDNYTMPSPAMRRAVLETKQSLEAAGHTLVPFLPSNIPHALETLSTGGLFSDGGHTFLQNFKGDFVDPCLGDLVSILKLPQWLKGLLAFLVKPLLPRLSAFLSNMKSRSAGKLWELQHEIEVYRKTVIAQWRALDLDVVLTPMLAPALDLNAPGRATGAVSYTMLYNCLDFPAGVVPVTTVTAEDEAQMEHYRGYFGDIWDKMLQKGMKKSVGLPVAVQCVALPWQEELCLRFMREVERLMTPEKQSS
Description for FAAH: Biological Evaluation In Vitro Competitive Activity-Based Protein Profiling.
Proteomes (mouse brain membrane fraction for mouse assays; human prefrontal cortex membrane fractions for human assays) (50 mL, 1.0 mg/mL total protein concentration) were preincubated with varying concentrations of inhibitors at 37° C. After 30 min, FP-Rh (1.0 mL, 50 mM in DMSO) was added and the mixture was incubated for another 30 min at 37° C. Reactions were quenched with SDS loading buffer (15 μL-4×) and run on SDS-PAGE.

For the molecule `NC(=O)c1ccn(C(=O)N2CCC3(CCN(Cc4cc(Cl)cc(C(F)(F)F)c4)C3)CC2)n1` [Example 196, 1-(2-(3-chloro-5-(trifluoromethyl)-benzyl)-2,8-diazaspiro[4.5]-decane-8-carbonyl)-1H-pyrazole-3-carboxamide], the IC50 at MAGL and at FAAH was under 0.1 µM throughout. As to `CN(Cc1ccccc1Cl)[C@H]1C[C@@H]2CN(C(=O)n3cc(Cl)c(C(N)=O)n3)C[C@@H]2C1` [Example 128, 4-chloro-1-(trans-5-((2-chlorobenzyl)-(methyl)amino)-octahydrocyclopenta-[c]pyrrole-2-carbonyl)-1H-pyrazole-3-carboxamide], the IC50 at MAGL and on FAAH was under 0.1 µM throughout. With `NC(=O)c1ccn(C(=O)N2CC3CN(Cc4ccc(N5CCOCC5)cc4C(F)(F)F)CC3C2)n1` (stereo not shown) [Example 17, 1-(5-(4-Morpholino-2-(trifluoromethyl)benzyl)octahydropyrrolo[3,4-c]pyrrole-2-carbonyl)-1H-pyrazole-3-carboxamide], the IC50 on MAGL and on FAAH was under 0.1 µM throughout. For the molecule `NC(=O)c1ccn(C(=O)N2CCN(Cc3ccc(C(F)(F)F)cc3N3CCCC3)CC2)n1` [Example 173, 1-(4-(2-(pyrrolidin-1-yl)-4-(trifluoromethyl)-benzyl)piperazine-1-carbonyl)-1H-pyrazole-3-carboxamide], the IC50 at MAGL and at FAAH was under 0.1 µM throughout. Regarding `CN(Cc1ccc(C(F)(F)F)cc1)[C@@H]1C[C@@H]2CN(C(=O)n3ccc(C(N)=O)n3)C[C@@H]2C1` [Example 205, 1-(cis-5-(methyl(4-(trifluoromethyl)-benzyl)amino)-octahydrocyclopenta-[c]pyrrole-2-carbonyl)-1H-pyrazole-3-carboxamide], the IC50 on MAGL and on FAAH was under 0.1 µM in each case. Take `O=C(O)c1nn(C(=O)N2CCN(Cc3cccc(Oc4ccc(Cl)cc4)c3)CC2)cc1Cl` [Example 132, 4-chloro-1-(4-(3-(4-chlorophenoxy)-benzyl)-piperazine-1-carbonyl)-1H-pyrazole-3-carboxylic acid]: the IC50 on MAGL and on FAAH was under 0.1 µM throughout.

Consider `NC(=O)c1ccn(C(=O)N2CCC3(CCN(Cc4cc(Cl)ccc4C(F)(F)F)C3)CC2)n1` [Example 99, 1-(2-(5-chloro-2-(trifluoromethyl)-benzyl)-2,8-diazaspiro[4.5]-decane-8-carbonyl)-1H-pyrazole-3-carboxamide], for which the IC50 at MAGL and on FAAH was under 0.1 µM in each case. For `NC(=O)c1ccn(C(=O)N2CC3CN(Cc4cc(Cl)ccc4Cl)CC3C2)n1` (stereo not shown) [Example 202, 1-(5-(2,5-dichlorobenzyl)-octahydropyrrolo-[3,4-c]pyrrole-2-carbonyl)-1H-pyrazole-3-carboxamide], the concentration for half-maximal inhibition (IC50) on MAGL and on FAAH was under 0.1 µM throughout. For `CN(Cc1ccccc1C(F)(F)F)[C@@H]1C[C@@H]2CN(C(=O)n3ccc(C(N)=O)n3)C[C@@H]2C1` [Example 204, 1-(cis-5-(methyl(2-(trifluoromethyl)-benzyl)amino)-octahydrocyclopenta-[c]pyrrole-2-carbonyl)-1H-pyrazole-3-carboxamide], the IC50 at MAGL and at FAAH was under 0.1 µM throughout. For `O=C(O)c1ccn(C(=O)N2C[C@H]3C[C@H](OCc4cccc(Oc5ccc(Cl)cc5)c4)C[C@H]3C2)n1` [Example 158, 1-(trans-5-((3-(4-chlorophenoxy)-benzyl)oxy)-octahydrocyclopenta-[c]pyrrole-2-carbonyl)-1H-pyrazole-3-carboxylic acid], the IC50 on MAGL and on FAAH was under 0.1 µM each time.

As for `O=C(O)c1ccn(C(=O)N2CCN(Cc3cc(F)cc(Oc4ccc(Cl)cc4)c3)CC2)n1` [Example 161, 1-(4-(3-(4-chlorophenoxy)-5-fluorobenzyl)-piperazine-1-carbonyl)-1H-pyrazole-3-carboxylic acid], the IC50 at MAGL and on FAAH was under 0.1 µM each time. Consider `CN(Cc1ccccc1Cl)[C@H]1C[C@@H]2CN(C(=O)n3ccc(C(N)=O)n3)C[C@@H]2C1` [Example 200, 1-(trans-5-((2-chlorobenzyl)-(methyl)amino)-octahydrocyclopenta-[c]pyrrole-2-carbonyl)-1H-pyrazole-3-carboxamide], for which the IC50 at MAGL and on FAAH was under 0.1 µM in each case.

Take `NC(=O)c1ccn(C(=O)N2CC3CN(Cc4cccc(C(F)(F)F)c4)CC3C2)n1` (stereo not shown) [Example 208, 1-(5-(3-(trifluoromethyl)-benzyl)-octahydropyrrolo-[3,4-c]pyrrole-2-carbonyl)-1H-pyrazole-3-carboxamide]: the IC50 at MAGL and on FAAH was under 0.1 µM each time. Consider `NC(=O)c1ccn(C(=O)N2CCN(Cc3cccc(Oc4ccccc4)c3)CC2)n1` [Example 198, 1-(4-(3-phenoxybenzyl)-piperazine-1-carbonyl)-1H-pyrazole-3-carboxamide], for which the inhibition at 1 µM on MAGL (read-out: MAGL % inh. 1 μM (human)) and at FAAH (read-out: FAAH % inh. 1 μM (human)) was over 75% in each case. `Cc1cc(CO[C@H]2C[C@@H]3CN(C(=O)n4ccc(C(=O)O)n4)C[C@@H]3C2)ccc1C(F)(F)F` [Example 172, 1-(trans-5-((3-methyl-4-(trifluoromethyl)-benyl)oxy)-octahydrocyclopenta-[c]pyrrole-2-carbonyl)-1H-pyrazole-3-carboxylic acid]: the IC50 at MAGL and on FAAH was under 0.1 µM each time. In the case of `CN(Cc1ccccc1Cl)[C@@H]1C[C@@H]2CN(C(=O)n3ccc(C(N)=O)n3)C[C@@H]2C1` [Example 206, 1-(cis-5-((2-chlorobenzyl)-(methyl)amino)-octahydrocyclopenta-[c]pyrrole-2-carbonyl)-1H-pyrazole-3-carboxamide], the IC50 on MAGL and on FAAH was under 0.1 µM throughout. On to `CNC(=O)c1ccn(C(=O)N2CCC3(CCN(Cc4cc(Cl)ccc4Cl)C3)C2)n1` (stereo not shown) [Example 428, 1-(7-(2,5-dichlorobenzyl)-2,7-diazaspiro[4.4]-nonane-2-carbonyl)-N-methyl-1H-pyrazole-3-carboxamide], for which the IC50 on MAGL was under 0.1 µM.

Consider `C[C@@H]1CN(Cc2ccc(-c3ccccc3)cc2C(F)(F)F)CCN1C(=O)n1ccc(C(=O)O)n1` [Example 351, (R)-1-(2-methyl-4-((3-(trifluoromethyl)-[1,1′-biphenyl]-4-yl)methyl)-piperazine-1-carbonyl)-1H-pyrazole-3-carboxylic acid], for which the IC50 on MAGL is under 0.1 µM. As for `O=C(O)c1ccn(C(=O)N2CCN(Cc3cccc(Oc4cnccc4C(F)(F)F)c3)CC2)n1` [Example 352, 1-(4-(3-((4-(trifluoromethyl)-pyridin-3-yl)oxy)-benzyl)-piperazine-1-carbonyl)-1H-pyrazole-3-carboxylic acid], at MAGL, the 50% inhibitory concentration (IC50) was under 0.1 µM.

Consider `NC(=O)c1ccn(C(=O)N2CCN(Cc3cccc(C(F)(F)F)c3N3CCOCC3)CC2)n1` [Example 199, 1-(4-(2-morpholino-3-(trifluoromethyl)-benzyl)piperazine-1-carbonyl)-1H-pyrazole-3-carboxamide], for which the half-maximal inhibitory concentration (IC50) on MAGL is under 0.1 µM.

With `O=C(O)c1nn(C(=O)N2CCN(Cc3cccc(Oc4cc(C(F)(F)F)ccn4)c3)CC2)cc1Cl` [Example 399, 4-chloro-1-(4-(3-((4-(trifluoromethyl)-pyridin-2-yl)oxy)benzyl)piperazine-1-carbonyl)-1H-pyrazole-3-carboxylic acid], the half-inhibitory concentration (IC50) at MAGL was under 0.1 µM.

Source of the values: patent US10927105B1 (Lundbeck La Jolla Research Center, Inc., priority 2017, dated 2021).
